Columns and labels:
[1] = system: PC-3 prostate cancer cells; test: Example T: sensitisation of PC-3 cells to doxorubicin, oxaliplatin, paclitaxel or vincristine, Wst1; format: cell-based, human; settings: PC-3 cells, 72 hours; for Doxorubicin 3.5 μM: percent cell survival / Oxaliplatin 100 μM: percent cell survival / Paclitaxel 50 μM: percent cell survival / Vincristine 100 nM: percent cell survival: chemotherapy agent alone normalized to 100%; for viability at 0.4 µM: compound 0.4 μM alone; for viability at 2.5 µM: compound 2.5 μM alone
[2] = system: THP-1 cells; test: Example D: LPS-triggered THP-1 cell death assay, acute/5-hour and chronic/48-hour; format: cell-based, Human; settings: 10 ng/ml LPS, 0.1 μM test compound, 48 hours
Method: Compounds of the invention were tested at 0.1 μM versus AC in the LPS-triggered THP-1 cell death assay. Both acute/5-hour and chronic/48-hour phases of cell death were assessed. Compounds were screened in batches with DMSO as the negative control and AC as the high activity control.

[3] = system: PC3 human prostate cancer cells; test: Example S: in vitro anticancer screen, PC-3 cells, Wst1; format: cell-based; settings: Homo sapiens, PC-3, approximately 20 hours, Wst1, read-out: PC-3, percent of cancer cell survival relative to vehicle treated cells
Method: Activity against PC3 human prostate cancer cells in vitro was assessed by a similar method. PC-3 prostate cancer cells were plated at 2×10^4 cells/well in 96 well flat bottom tissue culture plates, and incubated for approximately 20 hours with vehicle or test compounds at concentrations of 0.4, 0.5 or 2.5 μM as indicated for specific compounds in the right-hand column of Table 37. A 1/10th volume of Wst1 dye was added/well and incubated for two hours in the cell culture incubator. Samples were analyzed in triplicate on an EL800 Universal Microplate Reader at 450 nm, reference wavelength 630 nm.
Numerical values in the Table 37 represent percent of cancer cell survival relative to vehicle treated cells at the indicated concentrations, with values under 100 indicating anticancer cytotoxic activity at the drugs concentrations tested.

[4] = system: 4T1 murine breast cancer cells; test: Example S: in vitro anticancer screen, 4T1 cells, Wst1; format: cell-based, mouse; settings: Mus musculus, 4T1, 18 h, 18 hr, Wst1; for viability at 1 µM: read-out: 4T1 1 μM, percent of cancer cell survival relative to vehicle treated cells; for viability at 5 µM: read-out: 4T1 5 μM, percent of cancer cell survival relative to vehicle treated cells
Outline: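 Read-out is Wst1 absorbance (450 nm, reference 630 nm) after roughly 2 hr dye incubation, giving percent cell survival versus vehicle. Before that, compounds at 1 μM or 5 μM were applied for 18 hr to 4T1 cells plated at 1×10^4 per well.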

[5] = Homo sapiens, Wst1, vehicle = 100, read-out: No Chemo: percent cell survival
[6] = compound 0.4 μM + doxorubicin 3.5 μM
[7] = compound 0.4 μM + oxaliplatin 100 μM
[8] = compound 0.4 μM + paclitaxel 50 μM
[9] = compound 0.4 μM + vincristine 100 nM
[10] = compound 2.5 μM + doxorubicin 3.5 μM
[11] = compound 2.5 μM + oxaliplatin 100 μM
[12] = compound 2.5 μM + paclitaxel 50 μM
[13] = compound 2.5 μM + vincristine 100 nM

| SMILES | Viable cell percent change, Chronic/48-hour, Mean [2] [%] | viability at 1 µM [4] [%] | viability at 5 µM [4] [%] | viability at 0.4 µM [1, 5] [%] | Doxorubicin 3.5 μM: percent cell survival [1, 6] [%] | Oxaliplatin 100 μM: percent cell survival [1, 7] [%] | Paclitaxel 50 μM: percent cell survival [1, 8] [%] | Vincristine 100 nM: percent cell survival [1, 9] [%] | viability at 0.4 µM [3] [%] | viability at 2.5 µM [1, 5] [%] | Doxorubicin 3.5 μM: percent cell survival [1, 10] [%] | Oxaliplatin 100 μM: percent cell survival [1, 11] [%] | Paclitaxel 50 μM: percent cell survival [1, 12] [%] | Vincristine 100 nM: percent cell survival [1, 13] [%] | viability at 2.5 µM [3] [%] | other results |
| --- | --- | --- | --- | --- | --- | --- | --- | --- | --- | --- | --- | --- | --- | --- | --- | --- |
| O=C(NCCCCCCCCNc1ccnc2ccccc12)c1ccccc1 [DY, N-[8-(Quinolin-4-ylamino)octyl]benzamide] | 45.25 | 88.9 | 60.5 | – | – | – | – | – | – | – | – | – | – | – | – | viability at 5 µM ([1]; Homo sapiens, compound 5 μM alone, Wst1, vehicle = 100, read-out: No Chemo: percent cell survival): 16.1%; Doxorubicin 3.5 μM: percent cell survival ([1]; compound 5 μM + doxorubicin 3.5 μM): 21.2%; Oxaliplatin 100 μM: percent cell survival ([1]; compound 5 μM + oxaliplatin 100 μM): 20.6%; Paclitaxel 50 μM: percent cell survival ([1]; compound 5 μM + paclitaxel 50 μM): 23.3%; Vincristine 100 nM: percent cell survival ([1]; compound 5 μM + vincristine 100 nM): 18.3%; viability at 5 µM ([3]; 5 μM): 16.1% |
| COCCCCCCCCNc1cc[n+](C)cc1.[I-] [FL, 4-(8-Methoxyoctylamino)-1-methylpyridinium iodide] | 38.59 | 27.7 | 21.4 | 41.2 | 81.3 | 87.9 | 92.8 | 69.7 | 41.2 | – | – | – | – | – | – | – |
| O=C(NCCCCCCCCNc1ccnc2ccccc12)c1ccncc1 [EG, N-[8-(Quinolin-4-ylamino)octyl]isonicotinamide] | 60.59 | 34.7 | 27.7 | 92.2 | 91.3 | 96.2 | 95.3 | 88.5 | 92.2 | – | – | – | – | – | – | – |
| CCCCCCNc1ccnc2ccccc12 [EI, N-Hexylquinolin-4-amine] | 39.53 | 95 | 45.8 | – | – | – | – | – | – | 31.2 | 66.1 | 75.1 | 50.1 | 69.5 | 31.2 | – |
| CCCCCCOCCCCCCCCNc1cccc2cnccc12 [FT, N-[8-(Hexyloxy)octyl]isoquinolin-5-amine] | 3.59 | 113 | 27.6 | – | – | – | – | – | – | 41.1 | 74.4 | 94.2 | 85.2 | 78.3 | 41.1 | – |
| CCCCCCOc1ccc(Nc2ccnc3ccccc23)cc1 [DL, N-[4-(Hexyloxy)phenyl]quinolin-4-amine] | 61.01 | 70.9 | 21 | – | – | – | – | – | – | 43 | 193.5 | 172.6 | 164.8 | 164.9 | 43 | – |
| CCCCOCCCCCCCCCCn1cnc2cnc3ccccc3c21 [FK, 1-(10-Butoxydecyl)-1H-imidazo[4,5-c]quinoline] | 16.57 | 23.6 | 15.6 | – | – | – | – | – | – | – | – | – | – | – | – | viability at 0.5 µM ([1]; Homo sapiens, compound 0.5 μM alone, Wst1, vehicle = 100, read-out: No Chemo: percent cell survival): 35.5%; Doxorubicin 3.5 μM: percent cell survival ([1]; compound 0.5 μM + doxorubicin 3.5 μM): 47.4%; Oxaliplatin 100 μM: percent cell survival ([1]; compound 0.5 μM + oxaliplatin 100 μM): 62%; Paclitaxel 50 μM: percent cell survival ([1]; compound 0.5 μM + paclitaxel 50 μM): 18%; Vincristine 100 nM: percent cell survival ([1]; compound 0.5 μM + vincristine 100 nM): 39%; viability at 0.5 µM ([3]; 0.5 μM): 35.5% |
| CCCCCCOCCCOCCCCCn1cnc2cnc3ccccc3c21 [GC, 1-{5-[3-(Hexyloxy)propoxy]pentyl}-1H-imidazo[4,5-c]quinoline] | 19.30 | 84.8 | 21.1 | – | – | – | – | – | – | 19.8 | 59.5 | 63.2 | 30.3 | 26.4 | 19.8 | – |
| CCCCCCOc1ccc(OCCCNc2ccnc3ccccc23)cc1 [CY, N-{3-[4-(Hexyloxy)phenoxy]propyl}quinolin-4-amine] | 47.86 | 24.5 | 29.1 | 40.5 | 76.6 | 84.3 | 71.7 | 81.7 | 40.5 | – | – | – | – | – | – | – |
| CCCCCCOCCCCCCCCNc1ccnc2ccccc12 [CH, N-[8-(Hexyloxy)octyl]quinolin-4-amine] | 53.55 | 45.2 | 27.2 | 102 | 62.8 | 101.1 | 84.6 | 67.4 | 102 | – | – | – | – | – | – | – |
| O=C(NCCCCCCCCNc1ccnc2ccccc12)c1ccccn1 [EE, N-[8-(Quinolin-4-ylamino)octyl]picolinamide] | 24.32 | 24 | 18.1 | 34 | 66.4 | 70.8 | 45.3 | 47.1 | 34 | – | – | – | – | – | – | – |
| c1ccc(COCCCCCCCCNc2ccnc3ccccc23)cc1 [CO, N-[8-(Benzyloxy)octyl]quinolin-4-amine] | 43.95 | 28.4 | 55.6 | 77.1 | 28.4 | 29.2 | 51.6 | 32.8 | 77.1 | – | – | – | – | – | – | – |
| c1ccc(CCNc2ccnc3ccccc23)cc1 [DR, N-Phenethylquinolin-4-amine] | 27.12 | 77.9 | 27.2 | – | – | – | – | – | – | 31.5 | 59.9 | 68.7 | 49.2 | 35.5 | 31.5 | – |
| COc1ccc(C(=O)NCCCCCCCCNc2ccnc3ccccc23)cc1 [EA, 4-Methoxy-N-[8-(quinolin-4-ylamino)octyl]benzamide] | 73.48 | 31.1 | 36.8 | 108 | 87.8 | 89 | 73.5 | 84.5 | 108 | – | – | – | – | – | – | – |

— patent US20250034139A1, “AMINE COMPOUNDS HAVING ANTI-INFLAMMATORY, ANTIFUNGAL, ANTIPARASITIC, AND ANTICANCER ACTIVITY” (PHARMA CINQ, LLC, priority 2013, published 2025)
